Results as given in article PMC4979471 (Cell Death Discovery, 2015).
Read-outs that look alike come from different tables or passages of the source.

Experiments:
Test in all cases: Kinase selectivity, P33-radiolabeled assay
Type in all cases: biochemical
Details in all cases: 10 μM ATP
ALK5/TGFBR1 = target: T1, ALK5/TGFBR1 (Homo sapiens, UniProt P36897)
T1 construct: purchased Reaction Biology Corp
T1 sequence (P36897 34-503): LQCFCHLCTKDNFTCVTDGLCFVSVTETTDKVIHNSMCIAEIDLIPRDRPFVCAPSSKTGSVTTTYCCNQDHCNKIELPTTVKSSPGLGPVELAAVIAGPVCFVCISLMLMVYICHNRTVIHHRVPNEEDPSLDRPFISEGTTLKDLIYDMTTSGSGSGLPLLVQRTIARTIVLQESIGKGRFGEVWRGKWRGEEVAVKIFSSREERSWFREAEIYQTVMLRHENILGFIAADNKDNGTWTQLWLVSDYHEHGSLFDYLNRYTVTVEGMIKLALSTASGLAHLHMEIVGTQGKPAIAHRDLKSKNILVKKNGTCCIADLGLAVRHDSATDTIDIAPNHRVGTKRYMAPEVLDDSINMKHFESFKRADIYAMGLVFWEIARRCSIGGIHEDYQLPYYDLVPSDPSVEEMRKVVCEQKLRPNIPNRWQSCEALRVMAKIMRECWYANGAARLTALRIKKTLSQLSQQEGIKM
Procedure, shortened: (§1)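 Duplicate single-concentration testing used 10 μM compound. The ATP concentration was also 10 μM.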

TLK1 = target: T2, TLK1 (Homo sapiens, UniProt Q9UKI8)
T2 construct: purchased Reaction Biology Corp
T2 sequence (Q9UKI8 1-766): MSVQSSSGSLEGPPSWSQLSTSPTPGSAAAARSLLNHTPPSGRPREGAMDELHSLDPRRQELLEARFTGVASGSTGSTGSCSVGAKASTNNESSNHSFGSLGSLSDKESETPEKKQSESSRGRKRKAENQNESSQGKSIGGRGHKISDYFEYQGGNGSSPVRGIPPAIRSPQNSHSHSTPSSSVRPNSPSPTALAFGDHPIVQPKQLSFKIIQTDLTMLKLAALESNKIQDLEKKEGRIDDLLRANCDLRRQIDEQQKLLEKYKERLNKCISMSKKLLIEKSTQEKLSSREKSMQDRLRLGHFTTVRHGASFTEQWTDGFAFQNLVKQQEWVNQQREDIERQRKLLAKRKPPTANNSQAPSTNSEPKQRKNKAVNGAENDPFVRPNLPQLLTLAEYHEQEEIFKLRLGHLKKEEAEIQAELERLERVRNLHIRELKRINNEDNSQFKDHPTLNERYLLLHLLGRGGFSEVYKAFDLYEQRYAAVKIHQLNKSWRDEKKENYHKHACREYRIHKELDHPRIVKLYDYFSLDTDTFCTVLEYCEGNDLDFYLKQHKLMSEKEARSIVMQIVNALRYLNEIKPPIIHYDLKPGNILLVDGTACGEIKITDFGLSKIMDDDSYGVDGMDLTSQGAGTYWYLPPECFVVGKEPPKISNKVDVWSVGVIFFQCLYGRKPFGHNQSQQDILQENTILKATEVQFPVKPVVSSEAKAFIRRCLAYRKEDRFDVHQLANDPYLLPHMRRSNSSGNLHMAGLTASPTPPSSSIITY
Procedure, shortened: as §1

SYK = target: T3, SYK (Homo sapiens, UniProt P43405)
T3 construct: purchased Reaction Biology Corp
Procedure, shortened: as §1

JAK2 = target: T4, JAK2 (Homo sapiens, UniProt O60674)
T4 construct: purchased Reaction Biology Corp
Procedure, shortened: as §1

CDK4/cyclin D1 = target: T5, CDK4/cyclin D1 (Homo sapiens, UniProt P11802)
T5 construct: purchased Reaction Biology Corp
Procedure, shortened: as §1

MEKK2 = target: T6, MEKK2 (Homo sapiens, UniProt Q9Y2U5)
T6 construct: purchased Reaction Biology Corp
T6 sequence (Q9Y2U5 1-619): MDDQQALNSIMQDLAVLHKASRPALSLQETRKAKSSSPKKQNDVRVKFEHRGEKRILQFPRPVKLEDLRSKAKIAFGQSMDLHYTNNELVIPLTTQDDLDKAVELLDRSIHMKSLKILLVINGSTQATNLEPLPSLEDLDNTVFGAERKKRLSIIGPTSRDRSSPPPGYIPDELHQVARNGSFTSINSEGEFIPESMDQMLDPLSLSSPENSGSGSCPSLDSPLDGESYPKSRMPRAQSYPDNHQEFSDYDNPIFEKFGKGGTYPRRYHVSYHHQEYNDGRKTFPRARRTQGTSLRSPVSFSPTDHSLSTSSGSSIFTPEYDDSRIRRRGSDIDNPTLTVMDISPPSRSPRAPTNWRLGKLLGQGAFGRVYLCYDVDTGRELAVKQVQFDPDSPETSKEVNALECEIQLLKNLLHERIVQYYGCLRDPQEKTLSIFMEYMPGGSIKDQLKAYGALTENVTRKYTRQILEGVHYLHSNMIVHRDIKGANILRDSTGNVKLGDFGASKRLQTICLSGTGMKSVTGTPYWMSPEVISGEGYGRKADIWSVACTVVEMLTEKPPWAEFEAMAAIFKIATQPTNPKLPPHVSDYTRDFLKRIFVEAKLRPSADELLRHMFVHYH
Procedure, shortened: as §1

PASK = target: T7, PASK (Homo sapiens, UniProt Q96RG2)
T7 construct: purchased Reaction Biology Corp
Procedure, shortened: as §1

GRK5 = target: T8, GRK5 (Homo sapiens, UniProt P34947)
T8 construct: purchased Reaction Biology Corp
Procedure, shortened: as §1

BRAF = target: T9, BRAF (Homo sapiens, UniProt P15056)
T9 construct: purchased Reaction Biology Corp
Procedure, shortened: as §1

[1] = read-out: % Enzyme Activity (relative to DMSO controls) AVG
[2] = read-out: % Enzyme Activity (relative to DMSO controls) Data 1
[3] = read-out: % Enzyme Activity (relative to DMSO controls) Data 2

T7 sequence (Q96RG2 whole entry): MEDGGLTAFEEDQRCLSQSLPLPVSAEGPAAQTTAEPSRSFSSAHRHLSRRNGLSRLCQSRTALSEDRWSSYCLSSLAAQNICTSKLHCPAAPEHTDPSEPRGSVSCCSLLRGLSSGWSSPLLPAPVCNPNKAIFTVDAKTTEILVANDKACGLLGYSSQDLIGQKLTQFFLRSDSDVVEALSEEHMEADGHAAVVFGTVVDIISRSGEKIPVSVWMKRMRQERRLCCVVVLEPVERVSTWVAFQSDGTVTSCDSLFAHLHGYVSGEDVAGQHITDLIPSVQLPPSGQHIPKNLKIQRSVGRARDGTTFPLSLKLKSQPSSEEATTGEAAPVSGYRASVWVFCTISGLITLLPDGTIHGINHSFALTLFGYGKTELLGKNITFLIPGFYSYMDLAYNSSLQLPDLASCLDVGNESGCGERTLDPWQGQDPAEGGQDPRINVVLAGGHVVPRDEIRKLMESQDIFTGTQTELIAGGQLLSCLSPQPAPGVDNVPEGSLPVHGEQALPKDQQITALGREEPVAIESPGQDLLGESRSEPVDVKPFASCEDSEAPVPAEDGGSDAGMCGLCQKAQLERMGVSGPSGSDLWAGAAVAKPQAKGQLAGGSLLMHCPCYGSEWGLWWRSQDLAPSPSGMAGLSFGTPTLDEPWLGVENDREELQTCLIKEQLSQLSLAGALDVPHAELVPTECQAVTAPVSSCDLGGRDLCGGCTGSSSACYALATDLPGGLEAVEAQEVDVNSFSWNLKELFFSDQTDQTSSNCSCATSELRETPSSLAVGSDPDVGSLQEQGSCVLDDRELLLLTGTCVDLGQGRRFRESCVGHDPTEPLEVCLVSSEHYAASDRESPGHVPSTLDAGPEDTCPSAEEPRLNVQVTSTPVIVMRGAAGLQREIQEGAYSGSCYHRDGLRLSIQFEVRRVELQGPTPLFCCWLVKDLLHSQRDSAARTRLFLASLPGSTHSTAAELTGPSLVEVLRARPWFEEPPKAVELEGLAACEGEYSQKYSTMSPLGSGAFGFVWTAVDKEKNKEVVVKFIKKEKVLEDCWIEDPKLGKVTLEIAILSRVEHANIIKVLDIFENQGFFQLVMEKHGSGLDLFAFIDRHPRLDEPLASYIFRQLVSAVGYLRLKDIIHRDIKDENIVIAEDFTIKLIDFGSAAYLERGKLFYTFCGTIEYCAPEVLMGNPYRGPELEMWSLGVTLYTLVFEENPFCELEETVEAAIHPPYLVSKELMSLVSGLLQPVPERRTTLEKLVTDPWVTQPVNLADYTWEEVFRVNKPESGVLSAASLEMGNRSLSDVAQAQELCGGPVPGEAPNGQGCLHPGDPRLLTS
T9 sequence (P15056 whole entry): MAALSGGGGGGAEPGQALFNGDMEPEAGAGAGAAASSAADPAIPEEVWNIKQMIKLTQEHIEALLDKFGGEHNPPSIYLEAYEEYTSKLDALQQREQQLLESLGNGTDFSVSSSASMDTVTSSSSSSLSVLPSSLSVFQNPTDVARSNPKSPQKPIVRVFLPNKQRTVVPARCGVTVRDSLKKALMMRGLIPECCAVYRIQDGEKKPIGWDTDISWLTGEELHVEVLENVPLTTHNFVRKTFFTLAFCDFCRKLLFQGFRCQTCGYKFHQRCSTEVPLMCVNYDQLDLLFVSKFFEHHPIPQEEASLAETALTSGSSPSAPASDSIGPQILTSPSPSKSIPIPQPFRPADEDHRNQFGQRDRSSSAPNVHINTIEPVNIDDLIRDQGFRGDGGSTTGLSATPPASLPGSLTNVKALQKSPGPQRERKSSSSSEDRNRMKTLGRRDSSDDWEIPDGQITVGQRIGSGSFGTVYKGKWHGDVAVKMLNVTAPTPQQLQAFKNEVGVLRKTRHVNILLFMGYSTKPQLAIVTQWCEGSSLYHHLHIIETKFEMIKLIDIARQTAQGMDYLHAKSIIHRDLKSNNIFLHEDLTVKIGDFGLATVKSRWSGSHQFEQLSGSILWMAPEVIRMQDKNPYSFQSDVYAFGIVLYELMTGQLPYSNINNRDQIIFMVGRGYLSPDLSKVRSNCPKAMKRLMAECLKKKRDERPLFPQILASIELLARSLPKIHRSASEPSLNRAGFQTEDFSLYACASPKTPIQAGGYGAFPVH
T5 sequence (P11802 whole entry): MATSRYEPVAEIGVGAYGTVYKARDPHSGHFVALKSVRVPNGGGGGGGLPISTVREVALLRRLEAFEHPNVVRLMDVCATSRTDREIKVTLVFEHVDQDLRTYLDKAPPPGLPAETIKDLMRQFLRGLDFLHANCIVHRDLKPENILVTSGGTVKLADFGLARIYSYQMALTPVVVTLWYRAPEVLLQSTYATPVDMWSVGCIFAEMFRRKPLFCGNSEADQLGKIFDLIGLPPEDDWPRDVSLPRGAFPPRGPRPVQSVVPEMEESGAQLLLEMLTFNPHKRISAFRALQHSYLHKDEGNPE
T5 sequence (P24385 whole entry partner): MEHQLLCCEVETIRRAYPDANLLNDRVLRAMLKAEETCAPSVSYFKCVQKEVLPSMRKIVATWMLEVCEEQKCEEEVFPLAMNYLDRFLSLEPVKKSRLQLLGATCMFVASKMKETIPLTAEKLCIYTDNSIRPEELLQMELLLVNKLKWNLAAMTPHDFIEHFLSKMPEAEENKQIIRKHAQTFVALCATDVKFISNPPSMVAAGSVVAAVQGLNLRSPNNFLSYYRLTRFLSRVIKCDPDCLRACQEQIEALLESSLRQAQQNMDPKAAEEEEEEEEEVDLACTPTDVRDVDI
T4 sequence (O60674 whole entry): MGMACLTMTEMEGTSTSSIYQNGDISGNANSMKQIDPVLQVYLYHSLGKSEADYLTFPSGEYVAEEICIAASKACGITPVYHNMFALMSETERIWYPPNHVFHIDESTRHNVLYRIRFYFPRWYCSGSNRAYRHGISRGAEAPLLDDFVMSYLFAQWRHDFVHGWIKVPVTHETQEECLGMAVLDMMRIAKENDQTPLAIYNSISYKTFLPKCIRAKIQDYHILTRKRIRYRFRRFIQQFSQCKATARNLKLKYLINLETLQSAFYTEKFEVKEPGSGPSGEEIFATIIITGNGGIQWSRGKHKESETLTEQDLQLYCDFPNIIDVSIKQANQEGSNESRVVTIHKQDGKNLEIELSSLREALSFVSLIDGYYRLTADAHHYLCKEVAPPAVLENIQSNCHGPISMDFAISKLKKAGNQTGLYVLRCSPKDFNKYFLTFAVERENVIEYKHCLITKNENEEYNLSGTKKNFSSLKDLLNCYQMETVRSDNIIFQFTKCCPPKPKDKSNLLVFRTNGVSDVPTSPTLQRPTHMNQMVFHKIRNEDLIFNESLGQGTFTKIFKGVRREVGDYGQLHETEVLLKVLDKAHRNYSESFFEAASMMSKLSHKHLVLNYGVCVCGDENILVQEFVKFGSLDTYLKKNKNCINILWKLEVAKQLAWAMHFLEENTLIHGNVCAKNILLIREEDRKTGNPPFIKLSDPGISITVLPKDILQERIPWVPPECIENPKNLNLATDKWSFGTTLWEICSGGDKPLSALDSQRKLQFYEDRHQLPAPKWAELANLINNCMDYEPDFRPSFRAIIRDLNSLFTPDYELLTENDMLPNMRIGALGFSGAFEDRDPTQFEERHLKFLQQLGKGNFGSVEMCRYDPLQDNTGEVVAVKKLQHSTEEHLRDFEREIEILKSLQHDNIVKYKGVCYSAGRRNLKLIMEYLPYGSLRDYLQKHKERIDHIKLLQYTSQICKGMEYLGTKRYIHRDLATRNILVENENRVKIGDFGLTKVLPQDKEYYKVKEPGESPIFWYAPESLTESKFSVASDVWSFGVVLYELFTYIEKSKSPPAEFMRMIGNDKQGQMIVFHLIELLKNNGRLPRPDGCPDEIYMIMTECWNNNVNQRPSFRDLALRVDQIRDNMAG
T8 sequence (P34947 whole entry): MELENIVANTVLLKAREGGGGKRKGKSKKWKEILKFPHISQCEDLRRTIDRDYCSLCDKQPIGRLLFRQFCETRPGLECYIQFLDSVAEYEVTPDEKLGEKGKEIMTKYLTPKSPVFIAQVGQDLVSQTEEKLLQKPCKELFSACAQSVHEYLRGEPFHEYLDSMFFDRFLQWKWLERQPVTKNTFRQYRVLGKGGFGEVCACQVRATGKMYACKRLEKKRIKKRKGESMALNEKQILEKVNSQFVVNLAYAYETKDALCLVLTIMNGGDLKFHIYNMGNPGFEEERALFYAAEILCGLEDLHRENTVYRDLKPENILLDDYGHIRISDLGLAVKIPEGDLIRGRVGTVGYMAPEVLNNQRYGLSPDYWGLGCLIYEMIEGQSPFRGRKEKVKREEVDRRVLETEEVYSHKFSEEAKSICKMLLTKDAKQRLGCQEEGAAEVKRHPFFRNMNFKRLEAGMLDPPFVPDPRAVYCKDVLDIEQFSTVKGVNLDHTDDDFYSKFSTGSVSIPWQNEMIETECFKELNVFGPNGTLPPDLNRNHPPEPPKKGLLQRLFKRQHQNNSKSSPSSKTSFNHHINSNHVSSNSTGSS

Q: Which results are given for `CC(C)(C)C(=O)N1N=CC[C@H]1c1ccccc1` [GSK′963]?
A: remaining activity at 10 µM (ALK5/TGFBR1; [1]): 94.1%; remaining activity at 10 µM (ALK5/TGFBR1; [2]): 97%; remaining activity at 10 µM (ALK5/TGFBR1; [3]): 91.2%; remaining activity at 10 µM (TLK1; [1]): 97.5%; remaining activity at 10 µM (TLK1; [2]): 101%; remaining activity at 10 µM (TLK1; [3]): 93.9%; remaining activity at 10 µM (SYK; [1]): 102%; remaining activity at 10 µM (SYK; [2]): 106%; remaining activity at 10 µM (SYK; [3]): 97.6%; remaining activity at 10 µM (JAK2; [1]): 105%; remaining activity at 10 µM (JAK2; [2]): 105%; remaining activity at 10 µM (JAK2; [3]): 105%; remaining activity at 10 µM (CDK4/cyclin D1; [1]): 96.7%; remaining activity at 10 µM (CDK4/cyclin D1; [2]): 94.5%; remaining activity at 10 µM (CDK4/cyclin D1; [3]): 98.9%; remaining activity at 10 µM (MEKK2; [1]): 114%; remaining activity at 10 µM (MEKK2; [2]): 114%; remaining activity at 10 µM (MEKK2; [3]): 115%; remaining activity at 10 µM (PASK; [1]): 102%; remaining activity at 10 µM (PASK; [2]): 103%; remaining activity at 10 µM (PASK; [3]): 101%; remaining activity at 10 µM (GRK5; [1]): 99.4%; remaining activity at 10 µM (GRK5; [2]): 98.2%; remaining activity at 10 µM (GRK5; [3]): 101%; remaining activity at 10 µM (BRAF; [1]): 89.4%; remaining activity at 10 µM (BRAF; [2]): 89.4%; remaining activity at 10 µM (BRAF; [3]): 89.4%
